The assay deals with T1, human LTA4 hydrolase (Homo sapiens, UniProt P09960).
T1 sequence (P09960 1-611): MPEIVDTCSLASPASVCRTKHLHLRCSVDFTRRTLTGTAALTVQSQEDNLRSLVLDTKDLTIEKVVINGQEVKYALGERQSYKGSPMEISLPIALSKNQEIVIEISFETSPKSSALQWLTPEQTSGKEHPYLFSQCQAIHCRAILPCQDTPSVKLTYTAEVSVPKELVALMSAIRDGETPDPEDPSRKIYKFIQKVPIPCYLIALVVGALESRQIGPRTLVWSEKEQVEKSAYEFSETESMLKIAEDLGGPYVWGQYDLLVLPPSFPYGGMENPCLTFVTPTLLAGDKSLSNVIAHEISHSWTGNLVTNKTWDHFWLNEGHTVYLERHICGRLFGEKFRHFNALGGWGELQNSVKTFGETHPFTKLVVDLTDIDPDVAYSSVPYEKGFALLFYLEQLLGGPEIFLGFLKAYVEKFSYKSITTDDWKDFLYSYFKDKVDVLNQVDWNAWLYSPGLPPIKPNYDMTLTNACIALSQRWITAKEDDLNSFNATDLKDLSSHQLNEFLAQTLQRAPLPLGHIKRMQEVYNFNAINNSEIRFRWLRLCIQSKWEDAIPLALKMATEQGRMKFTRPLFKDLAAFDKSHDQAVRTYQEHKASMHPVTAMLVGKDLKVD
In words: LTA4H Enzyme assay (cleavage of Arg-AMC, fluorescence). Type of assay: biochemical. The conditions noted are these: LTA4H Enzyme 1 nM, Arg-AMC substrate 50 μM, room temperature 1 h, fluorescence; read-out: IC50 values of LTA4H Enzyme assay. Put shortly:
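Aminomethylcoumarin release measured fluorimetrically (380/460 nm) after 1 h at room temperature. Reaction: 1 nM final enzyme, 50 μM final Arg-AMC and compound in Tris-HCl pH 7.5 with 100 mM KCl and 0.5% BSA.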
As to `O[C@H]1CCN(Cc2ccc([C@H]3COc4cccnc4O3)cc2)C1` [Example 147, (3S)-1-{4-[(3S)-2,3-dihydro[1,4]dioxino[2,3-b]pyridin-3-yl]benzyl}pyrrolidin-3-ol], the IC50 (commonly the concentration needed to halve the response being measured) was found to be 350 pM.

As for `CC(=O)N1CCCN(Cc2ccc([C@H]3COc4cccnc4O3)cc2)CC1` [Example 148, 1-(4-{4-[(3S)-2,3-dihydro[1,4]dihydro[2,3-b]pyridin-3-yl]benzyl}-1,4-diazepan-1-yl)ethanone], the IC50 was 280 pM.

Regarding `OCCCC1CCN(Cc2ccc([C@H]3COc4cccnc4O3)cc2)CC1` [Example 149, 3-(1-{4-[(3S)-2,3-dihydro[1,4]dioxino[2,3-b]pyridin-3-yl]benzyl}piperidin-4-yl)propan-1-ol], the IC50 was 240 pM.

On to `c1cnc2c(c1)OC[C@H](c1ccc(CN3CCCOCC3)cc1)O2` [Example 150, (3S)-3-[4-(1,4-oxazepan-4-ylmethyl)phenyl]-2,3-dihydro[1,4]dioxino[2,3-b]pyridine], for which the IC50 amounted to 210 pM.

As to `O=C(O)CCCC1CCN(Cc2ccc([C@H]3COc4cccnc4O3)cc2)CC1` [Example 151, 4-(1-{4-[(3S)-2,3-dihydro[1,4]dioxino[2,3-b]pyridin-3-yl]benzyl}piperidin-4-yl)butanoic acid], the IC50 was 100 pM.

For the compound `CNC(=O)C1CCN(Cc2ccc([C@H]3COc4cccnc4O3)cc2)CC1` [Example 152, 1-{4-[(3S)-2,3-dihydro[1,4]dioxino[2,3-b]pyridin-3-yl]benzyl}-N-methylpiperidine-4-carboxamide], the IC50 came out at 170 pM.

Regarding `CC(=O)N1CCC(NCc2ccc([C@H]3COc4cccnc4O3)cc2)CC1` [Example 153, 1-[4-({4-[(3S)-2,3-dihydro[1,4]dioxino[2,3-b]pyridin-3-yl]benzyl}amino)piperidin-1-yl]ethanone], the IC50 is 820 pM.

Take `O=C(NCCO)C1CCN(Cc2ccc([C@H]3COc4cccnc4O3)cc2)CC1` [Example 154, 1-{4-[(3S)-2,3-dihydro[1,4]dioxino[2,3-b]pyridin-3-yl]benzyl}-N-(2-hydroxyethyl)piperidine-4-carboxamide]: the IC50 came to 200 pM.

`CC(C)(CN1CCCC1)NCc1ccc([C@H]2COc3cccnc3O2)cc1` [Example 157, N-{4-[(3S)-2,3-dihydro[1,4]dioxino[2,3-b]pyridin-3-yl]benzyl}-2-methyl-1-(pyrrolidin-1-yl)propan-2-amine]: the IC50 was found to be 180 pM.

In the case of `N#CC1CCN(Cc2ccc([C@H]3COc4cccnc4O3)cc2)CC1` [Example 159, 1-{4-[(3S)-2,3-dihydro[1,4]dioxino[2,3-b]pyridin-3-yl]benzyl}piperidine-4-carbonitrile], the IC50 came to 160 pM.

For the compound `O=S1(=O)CCN(Cc2ccc([C@H]3COc4cccnc4O3)cc2)CC1` [Example 161, (3S)-3-{4-[(1,1-dioxidothiomorpholin-4-yl)methyl]phenyl}-2,3-dihydro[1,4]dioxino[2,3-b]pyridine], the IC50 is 410 pM.

For `O=C(C1CCN(Cc2ccc([C@H]3COc4cccnc4O3)cc2)CC1)N1CCOCC1` [Example 162, (1-{4-[(3S)-2,3-dihydro[1,4]dioxino[2,3-b]pyridin-3-yl]benzyl}piperidin-4-yl)(morpholin-4-yl)methanone], the IC50 stood at 140 pM.

On to `O=C1CCCN1CC1CCCN(Cc2ccc([C@H]3COc4cccnc4O3)cc2)C1` (stereo partly drawn) [Example 163, 1-[(1-{4-[(3S)-2,3-dihydro[1,4]dioxino[2,3-b]pyridin-3-yl]benzyl}piperidin-3-yl)methyl]pyrrolidin-2-one], for which the IC50 came out at 170 pM.

On to `O=C1NC(=O)C2(CCN(Cc3ccc([C@H]4COc5cccnc5O4)cc3)CC2)N1` [Example 165, 8-{4-[(3S)-2,3-dihydro[1,4]dioxin[2,3-b]pyridin-3-yl]benzyl}-1,3,8-triazaspiro[4.5]decane-2,4-dione], for which the IC50 was found to be 130 pM.

With `COC1CN(Cc2ccc([C@H]3COc4cccnc4O3)cc2)C1` [Example 166, (3S)-3-{4-[(3-methoxyazetidin-1-yl)methyl]phenyl}-2,3-dihydro[1,4]dioxino[2,3-b]pyridine], the IC50 was 680 pM.

As to `CS(=O)(=O)N1CCC(NCc2ccc([C@H]3COc4cccnc4O3)cc2)CC1` [Example 167, N-{4-[(3S)-2,3-dihydro[1,4]dioxino[2,3-b]pyridin-3-yl]benzyl}-1-(methylsulfonyl)piperidin-4-amine], the IC50 stood at 270 pM.

Consider `CN(Cc1ccc([C@H]2COc3cccnc3O2)cc1)C1CCN(S(C)(=O)=O)CC1` [Example 169, N-{4-[(3S)-2,3-dihydro[1,4]dioxino[2,3-b]pyridin-3-yl]benzyl}-N-methyl-1-(methylsulfonyl)piperidin-4-amine], for which the IC50 worked out at 330 pM.

As for `COCCOC1CCN(Cc2ccc([C@H]3COc4cccnc4O3)cc2)CC1` [Example 170, (3S)-3-(4-{[4-(2-methoxyethoxy)piperidin-1-yl]methyl}phenyl)-2,3-dihydro[1,4]dioxino[2,3-b]pyridine], the IC50 was determined as 470 pM.

Regarding `CN(C)C(=O)CC1CCN(Cc2ccc([C@H]3COc4cccnc4O3)cc2)CC1` [Example 171, 2-(1-{4-[(3S)-2,3-dihydro[1,4]dioxino[2,3-b]pyridin-3-yl]benzyl}piperidin-4-yl)-N,N-dimethylacetamide], the IC50 stood at 450 pM.

In the case of `CS(=O)(=O)C1CCN(Cc2ccc([C@H]3COc4cccnc4O3)cc2)CC1` [Example 172, (3S)-3-(4-{[4-(methylsulfonyl)piperidin-1-yl]methyl}phenyl)-2,3-dihydro[1,4]dioxin[2,3-b]pyridine], the IC50 was determined as 530 pM.

Consider `CS(=O)(=O)NC1CCN(Cc2ccc([C@H]3COc4ccccc4O3)cc2)CC1` [Example 176, N-(1-{4-[(2S)-2,3-dihydro-1,4-benzodioxin-2-yl]benzyl}piperidin-4-yl)methanesulfonamide], for which the IC50 came to 240 pM.

Take `N#CC1CCN(Cc2ccc([C@H]3COc4ccccc4O3)cc2)CC1` [Example 177, 1-{4-[(2S)-2,3-dihydro-1,4-benzodioxin-2-yl]benzyl}piperidine-4-carbonitrile]: the IC50 was 1450 pM.

Consider `CNC(=O)C1CCN(Cc2ccc([C@H]3COc4ccccc4O3)cc2)CC1` [Example 179, 1-{4-[(2S)-2,3-dihydro-1,4-benzodioxin-2-yl]benzyl}-N-methylpiperidine-4-carboxamide], for which the IC50 amounted to 160 pM.

As to `O=C(C1CCN(Cc2ccc([C@H]3COc4ccccc4O3)cc2)CC1)N1CCOCC1` [Example 180, (1-{4-[(2S)-2,3-dihydro-1,4-benzodioxin-2-yl]benzyl}piperidin-4-yl)(morpholin-4-yl)methanone], the IC50 is 120 pM.

For `O=C(O)CCCC1CCN(Cc2ccc([C@H]3COc4ccccc4O3)cc2)CC1` [Example 181, 4-(1-{4-[(2S)-2,3-dihydro-1,4-benzodioxin-2-yl]benzyl}piperidin-4-yl)butanoic acid], the IC50 amounted to 42 pM.

As for `O=C(O)C[C@H]1CCCN(Cc2ccc([C@H]3COc4ccccc4O3)cc2)C1` [Example 182, [(3R)-1-{4-[(2S)-2,3-dihydro-1,4-benzodioxin-2-yl]benzyl}piperidin-3-yl]acetic acid], the IC50 was 290 pM.

Turning to `O=C(O)C[C@H]1CCN(Cc2ccc([C@H]3COc4ccccc4O3)cc2)C1` [Example 184, [(3R)-1-{4-[(2S)-2,3-dihydro-1,4-benzodioxin-2-yl]benzyl}pyrrolidin-3-yl]acetic acid], the IC50 is 110 pM.

As for `CS(=O)(=O)N1CCN(Cc2ccc([C@H]3COc4cccnc4O3)cc2)CC1` [Example 188, (3S)-3-(4-{[4-(methylsulfonyl)piperazin-1-yl]methyl}phenyl)-2,3-dihydro[1,4]dioxino[2,3-b]pyridine], the IC50 is 870 pM.

`O=C(O)C1CCN(Cc2ccc([C@H]3COc4cccnc4O3)cc2)CC1` [Example 189, 1-{4-[(3S)-2,3-dihydro[1,4]dioxino[2,3-b]pyridin-3-yl]benzyl}piperidine-4-carboxylic acid]: the IC50 worked out at 160 pM.

As to `O=C(O)[C@H]1CC[C@@H](NCc2ccc([C@H]3COc4ccccc4O3)cc2)C1` [Example 191, (1S,3R)-3-({4-[(2S)-2,3-dihydro-1,4-benzodioxin-2-yl]benzyl}amino)cyclopentane-carboxylic acid], the IC50 amounted to 1620 pM.

For the compound `O=C(O)C1CCN(Cc2ccc([C@@H]3COc4ccccc4O3)cc2)CC1` [Example 201, (R)-1-[4-(2,3-Dihydro-benzo[1,4]dioxin-2-yl)-benzyl]-piperidine-4-carboxylic acid], the IC50 is 1590 pM.

Regarding `Fc1ccc2c(c1)OC(c1ccc(CN3CCOCC3)cc1)CO2` (stereo not shown) [Example 202, 4-[4-(7-Fluoro-2,3-dihydro-benzo[1,4]dioxin-2-yl)-benzyl]-morpholine], the IC50 was 23400 pM.

Regarding `Fc1ccc2c(c1)OC(c1ccc(CN3CCCC3)cc1)CO2` (stereo not shown) [Example 203, 1-[4-(7-Fluoro-2,3-dihydro-benzo[1,4]dioxin-2-yl)-benzyl]-pyrrolidine], the concentration for half-maximal inhibition (IC50) came to 2940 pM.

For the compound `c1cnc2c(c1)OC[C@@H](c1ccc(CN3CCOCC3)cc1)O2` [Example 205, (R)-3-(4-Morpholin-4-ylmethyl-phenyl)-2,3-dihydro-[1,4]dioxino[2,3-b]pyridine], the IC50 worked out at 27500 pM.

The record behind these values is US8946203B2, “Benzodioxane inhibitors of leukotriene production” (Boehringer Ingelheim International GmbH, priority 2012, dated 2015).
